The results in this text go back to article PMC12688159, “Chemosensory protein 3 is a brain host factor for the induction of enhanced-locomotory activity in the BmNPV-silkworm infection model” (PLOS Pathogens, 2025).

Some results are limits rather than exact numbers.

Assay [1] deals with T1, BmCSP3 (chemosensory protein 3) (Bombyx mori, UniProt Q3LBA2).
T1 construct: residues 19–109 of UniProt entry Q3LBA2
T1 sequence (Q3LBA2 19-127): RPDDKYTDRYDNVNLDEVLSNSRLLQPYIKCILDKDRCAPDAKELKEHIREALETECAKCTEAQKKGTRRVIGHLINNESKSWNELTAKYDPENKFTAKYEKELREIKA
The assay is described as follows: biochemical. Particulars: EC50int, 1-NPN displacement; read-out: EC50,int ± SE (μΜ). Set-up: 1-NPN fluorescence displacement from purified BmCSP3; EC50int interpolated, Ki by Cheng-Prusoff. How it is done:
(§1) The dissociation constant (Kd) of the fluorescent probe 1-NPN (N-Phenyl-1-naphthylamine) was determined in solutions containing 4 μΜ BmCSP3 in 20 mM Tris-HCl pH 8.0, 100 mM NaCl by addition of 0 το 20 μM 1-NPN. To determine the ligands’ Ki, 1-NPN displacement was measured in solutions containing 4 μΜ BmCSP3, 10 μΜ 1-NPN and ligand concentrations ranged from 0-20 μΜ and 0–32 μΜ, for the tested neurotranmiters and lipids, respectively. Control samples containing the ligand and 1-NPN, but lacking protein, were run in parallel to determine background fluorescence, which was subtracted from the experimental data. All experiments were performed in technical triplicate. Given that the bottom values never reaches zero and varied among the different experiments, the ligand concentration that reduced the initial fluorescence by 50% (EC50int) was estimated from the displacement binding curves by interpolation, using the built-in interpolation function of GraphPad Prism.

In assay [2] the target is T1, BmCSP3 (chemosensory protein 3). The assay can be described thus: biochemical. Set-up: 1-NPN fluorescence displacement binding with purified BmCSP3; Ki by Cheng-Prusoff from interpolated EC50. The settings on record: 4 uM BmCSP3, 10 uM 1-NPN, pH 8.0, 25 °C; read-out: Ki (μΜ). The procedure:
as §1, with “triplicate. The determination of dissociation constants and the visualization of the binding curves was carried out using the non-linear regression analysis program GraphPad Prism 8 (www.graphpad.com). The Kd of 1-NPN for BmCSP3 was determined to be 5.8 μΜ by fitting the fluorescence data to a single-binding site saturation model described by the equation” for “triplicate.”, “Prism. Subsequently, the ligand’s dissociation constant (Ki) was determined using the Cheng-Prusoff equation: […]” for “Prism.”

Assay [3] shares this target. The assay can be described thus: direct fluorescence titration of the probe with purified protein, single-site saturation fit. It counts as binding.
For assay [4] the target is unchanged. The assay is described as follows: 1-NPN fluorescence displacement binding assay with purified protein.

A word on the EC50: it is the concentration at which the effect is half-maximal. One may read the Ki as a dissociation constant, usually derived from enzyme kinetics or from competition with a known ligand. On to `NCCCC(N)C(=O)O` (racemic) [DL-Ornithine], for which the EC50 in assay [1] is greater than 20000 nM. For the same molecule, the Ki in assay [2] was greater than 20000 nM. The term Kd denotes the equilibrium constant for the complex coming apart. Consider `c1ccc(Nc2cccc3ccccc23)cc1` [1-NPN, N-Phenyl-1-naphthylamine], for which the Kd in assay [3] amounted to 5800 nM. In the case of `CC/C=C\C/C=C\C=C\[C@@H](O)CCCCCCCC(=O)O` [9(S)-HOTrE, (10E,12Z,15Z)-9-hydroxyoctadeca-10,12,15-trienoic acid], the Ki in assay [4] (read-out: Ki) is 290 nM. For the same molecule, the half-maximal effective concentration (EC50) in assay [1] was 790 ± 100 nM. As to `NCC(=O)O` [Glycine], the EC50 in assay [1] was greater than 20000 nM. Also, in assay [2], the Ki was greater than 20000 nM. The molecule `O=C(O)Cc1cc(O)ccc1O` [Homogentisic acid] displayed a Ki in assay [4] of 2500 nM. Further, the EC50 in assay [1] worked out at 6760 ± 1580 nM. Take `NC(=O)CC[C@H](N)C(=O)O` [L-glutamine]: the Ki in assay [4] (read-out: Ki) was 2800 nM. Further, in assay [1], the EC50 worked out at 7780 ± 1480 nM. On to `Nc1ccccc1C(=O)C[C@H](N)C(=O)O` [L-kynurenine], for which the inhibition constant (Ki) in assay [4] (read-out: Ki) was 72 nM. Besides, in assay [1], the EC50 came to 200 ± 20 nM. With `NCCCC[C@H](N)C(=O)O` [L-lysine], the EC50 in assay [1] is greater than 20000 nM. For the same molecule, in assay [2], the Ki is greater than 14000 nM. With `CC(=O)NCCc1c[nH]c2ccc(O)cc12` [N-acetylserotonin], the Ki in assay [4] (read-out: Ki) amounted to 2130 nM. Further, the EC50 in assay [1] is 5820 ± 1130 nM. `NCCc1c[nH]c2ccc(O)cc12` [Serotonin]: in assay [4], the affinity corresponds to a Ki of 1800 nM. Besides, the EC50 in assay [1] was determined as 4810 ± 1170 nM. The corresponding values for `NCCc1c[nH]c2ccccc12` [Tryptamine] are 11 nM and 30 ± 10 nM.
